Data taken from patent publication US4939092A, “Proteinaceous derivatives containing iron in highly bioavailable form, preparation thereof and pharmaceutical compositions containing them” (Unibois S.p.A., priority 1987, dated 1990).
Read-outs that look alike come from different tables or passages of the source.

How the values were obtained:
[1] = Gastric tolerability: values of the lesions found on the gastric mucosa; conditions: for value of the lesions on the gastric mucosa / value of the lesions on the gastric mucosa, Media (mean): oral t.i.d., 100 mg/kg iron; for value of the lesions on the gastric mucosa, Media (mean): mean of 7 animals
Experimental: (§1) In the aim of correctly evaluating activity, bio-availability and toxicity of the products under exam, they were suitably vehicled by means of dissolution in mixtures of H2 O/propylene glycol/sorbitol, in equal proportions, so as to obtain for the experimental tests solutions at identical Fe^+++ titre (4 mg/ml).

[2] = Antianemic activity (iron-deficient diet); format: in vivo, rats; conditions: iron-deficient diet + substance
Experimental: as §1

[3] = Acute toxicity after oral administration in the male rat; format: in vivo; conditions: for N° DEAD ANIMALS: 10 animals
From the text: ACUTE TOXICITY OF UB 1004 AFTER ORAL
ADMINISTRATION IN THE MALE RAT

[4] = oral, background; cited from earlier work
[5] = background; cited from earlier work
[6] = rat, in vivo, po, 100 mg/kg
Experimental: as §1

[7] = Solubility / precipitation; format: physicochemical
[8] = oral, 25 mg/Kg Fe = 367.5 mg/Kg
[9] = oral, 100 mg/Kg Fe = 1470 mg/Kg
[10] = oral, 200 mg/Kg Fe = 2940 mg/Kg
[11] = oral, 400 mg/Kg Fe = 5880 mg/Kg

Compound | value of the lesions on the gastric mucosa ([1]; animal 1) | value of the lesions on the gastric mucosa ([1]; animal 2) | value of the lesions on the gastric mucosa ([1]; animal 3) | value of the lesions on the gastric mucosa ([1]; animal 4) | value of the lesions on the gastric mucosa ([1]; animal 5) | value of the lesions on the gastric mucosa ([1]; animal 6) | value of the lesions on the gastric mucosa ([1]; animal 7) | value of the lesions on the gastric mucosa, Media (mean) [1] | ERYTHROCYTES ([2]; 7 (time unit not given)) | HEMOGLOBIN ([2]; 7 (time unit not given)) | SYDEREMIA ([2]; 7 (time unit not given)) | ERYTHROCYTES ([2]; 14 (time unit not given)) | HEMOGLOBIN ([2]; 14 (time unit not given)) | SYDEREMIA ([2]; 14 (time unit not given)) | ERYTHROCYTES ([2]; 21 (time unit not given)) | HEMOGLOBIN ([2]; 21 (time unit not given)) | SYDEREMIA ([2]; 21 (time unit not given)) | Solubility at pH 8 [7] | further results
O=S(=O)([O-])[O-].[Fe+2] [FERROUS SULFATE, Ferrous Sulphate, reference compound] | 1 | 2 | 1 | 1 | 3 | 1 | 3 | 1.70 | 7.07 ± 0.76 10^6 /mm^3 | 14.38 ± 1.91 g/100 ml | 247.6 ± 87.0 μg/100 ml | 7.34 ± 0.46 10^6 /mm^3 | 15.63 ± 0.33 g/100 ml | 198.4 ± 52.2 μg/100 ml | 6.94 ± 0.42 10^6 /mm^3 | 14.09 ± 1.50 g/100 ml | 171.0 ± 19.9 μg/100 ml | – | gastric damage ([1]; conclusions): harmful at the gastric level; toxicity ([3]; conclusions): considerably toxic
Ferritin | – | – | – | – | – | – | – | – | – | 13.88 ± 0.93 g/100 ml | 196.3 ± 88.9 μg/100 ml | 6.99 ± 0.58 10^6 /mm^3 | 15.46 ± 0.93 g/100 ml | 217.1 ± 52.7 μg/100 ml | 6.99 ± 0.13 10^6 /mm^3 | 14.43 ± 1.12 g/100 ml | 227.6 ± 25.7 μg/100 ml | – | gastrointestinal side-effects [4]: does not have gastrointestinal side-effects; water solubility [5]: hydrosoluble; value of the lesions on the gastric mucosa, Media (mean) [6]: 0.28
UB 1004: iron (ferric) complex of lysozyme glutarate, obtained in Example 1(b) with ferric glycerophosphate | 0 | 0 | 0 | 0 | 0 | 0 | 0 | 0 | 7.20 ± 0.58 10^6 /mm^3 | 14.43 ± 1.13 g/100 ml | 178.6 ± 57.1 μg/100 ml | 7.20 ± 0.48 10^6 /mm^3 | 15.70 ± 1.00 g/100 ml | 177.5 ± 42.8 μg/100 ml | 7.13 ± 0.26 10^6 /mm^3 | 15.58 ± 0.97 g/100 ml | 184.3 ± 31.8 μg/100 ml | Complete | Precipitation with (NH4)2SO4 at 30% ([7]; (NH4)2SO4 30%): Complete; Solubility of the precipitate with (NH4)2SO4 in water ([7]; water): Complete; % DEATH-RATE [3, 8]: 0.00%; N° DEAD ANIMALS [3, 8]: 0; % DEATH-RATE ([3]; oral, 50 mg/Kg Fe = 735 mg/Kg): 0.00%; N° DEAD ANIMALS ([3]; oral, 50 mg/Kg Fe = 735 mg/Kg): 0; % DEATH-RATE [3, 9]: 0.00%; N° DEAD ANIMALS [3, 9]: 0; % DEATH-RATE [3, 10]: 0.00%; N° DEAD ANIMALS [3, 10]: 0; % DEATH-RATE [3, 11]: 0.00%; N° DEAD ANIMALS [3, 11]: 0; DL50 ([3]; oral, male rat, up to 400 mg/Kg Fe): NOT DETERMINABLE
lysozyme glutarate: lysozyme acylated with glutaric anhydride, Example 1(a) | – | – | – | – | – | – | – | – | – | – | – | – | – | – | – | – | – | Complete | Solubility at pH 3 ([7]; pH 3): nil
